This is an account of results in ChEMBL document CHEMBL3217671, “l-Penicillamine is a mechanism-based inhibitor of serine palmitoyltransferase by forming a pyridoxal-5-phosphate-thiazolidine adduct” (Medchemcomm, 2012).

For test [1], the target named is T1, Serine palmitoyltransferase (Sphingomonas paucimobilis) (UniProt Q93UV0).
T1 sequence (whole entry): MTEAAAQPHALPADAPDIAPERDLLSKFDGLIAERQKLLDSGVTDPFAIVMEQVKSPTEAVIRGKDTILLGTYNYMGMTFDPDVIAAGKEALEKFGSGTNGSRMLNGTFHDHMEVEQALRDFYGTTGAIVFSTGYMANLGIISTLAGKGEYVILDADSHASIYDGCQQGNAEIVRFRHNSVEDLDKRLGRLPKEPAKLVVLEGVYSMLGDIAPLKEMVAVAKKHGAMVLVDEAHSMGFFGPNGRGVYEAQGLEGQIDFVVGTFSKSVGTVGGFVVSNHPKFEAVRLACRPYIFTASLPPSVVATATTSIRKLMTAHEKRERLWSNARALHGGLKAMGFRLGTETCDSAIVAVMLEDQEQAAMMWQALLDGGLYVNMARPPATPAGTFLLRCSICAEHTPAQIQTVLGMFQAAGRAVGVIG
The test can be described thus: Reversible inhibition of Sphingomonas paucimobilis recombinant SPT expressed in Escherichia coli BL21(DE3) assessed as restoration of enzyme activity at 5 mM after 30 mins by dialysis technique in presence of PLP relative to control. More on the design: scale not given: the % may be the effect or the level left.

The target of test [2] is T1, Serine palmitoyltransferase (Sphingomonas paucimobilis). The test can be described thus: Inhibition of Sphingomonas paucimobilis recombinant SPT expressed in Escherichia coli BL21(DE3) assessed as remaining activity at 5 mM after 30 mins by dialysis technique relative to control.
Test [3] has the same target. The test can be described thus: Binding affinity to Sphingomonas paucimobilis recombinant SPT expressed in Escherichia coli BL21(DE3) at 10 mM after 30 mins by UV-vis spectroscopic analysis.
For test [4] the target is unchanged. The test can be described thus: Binding affinity to Sphingomonas paucimobilis recombinant SPT expressed in Escherichia coli BL21(DE3) at 5 mM by ESI-FT-ICR mass spectrometric analysis.
Test [5] has the same target. The test can be described thus: Inhibition of Sphingomonas paucimobilis recombinant SPT expressed in Escherichia coli BL21(DE3) by dialysis technique in presence of PLP and potassium phosphate buffer.
Test [6] shares this target. The test can be described thus: Inhibition of Sphingomonas paucimobilis recombinant SPT expressed in Escherichia coli BL21(DE3) by membrane filtration assay.
Test [7] shares this target. The test can be described thus: Reversible inhibition of Sphingomonas paucimobilis recombinant SPT expressed in Escherichia coli BL21(DE3) at 1 mM after 1 to 60 mins by UV-vis spectroscopic analysis in presence of potassium phosphate buffer.
Test [8] has the same target. In words: Reversible inhibition of Sphingomonas paucimobilis recombinant SPT expressed in Escherichia coli BL21(DE3) at 1 mM after 1 to 60 mins by UV-vis spectroscopic analysis in presence of Tris-HCl buffer.
Test [9] has the same target. In words: Binding affinity to Sphingomonas paucimobilis recombinant SPT expressed in Escherichia coli BL21(DE3) at 10 mM by UV-vis spectroscopic analysis. To be noted: TDE = time-dependent effect.

Calls of active or inactive are those of the source. No cut-off for these calls is given here.

As for `N[C@H](CS)C(=O)O`, the Activity was 76% in [1] and 22% in [2].
For `CC(C)(S)[C@@H](N)C(=O)O`, in that order: 57% and 34%.
`CC(C)(S)[C@H](N)C(=O)O`: the outcome in [3] and in test [4] was Active. For the same compound, the Activity in test [1] turned out to be 80%; in [2], 3%. Besides, the inhibition result in test [5] and in test [6] was “Active” in each case.
As to `N[C@@H](CS)C(=O)O`, the inhibition entry in test [7] is “inactive”. The Activity in [1] was 83%; in [9] it was “tde”; in test [2] it was 24%. The inhibition entry in test [8] is “Active”.
